From patent publication US20140336220A1, “COMPOSITION FOR PREVENTING OR TREATING OBESITY COMPRISING REBAMIPIDE” (The Catholic University of Korea Industry-Academic …, priority 2011, published 2014)

How the values were obtained:
[1] = test system: animal models induced with obesity; experiment: Adipocyte in liver frozen sections, haematoxylin and eosin and Oil red O staining; assay type: in vivo, mouse; details: oral administration, 51 days, H&E and Oil red O staining, vs control induced with obesity, FIG. 2
Experimental: In order to check fat inhibition effect of rebamipide, after supply of a high fat diet for 51 days was ended, a food was stopped at 12 hours before an experiment period was ended. Then, a frozen section (7 μm) obtained from a liver was haematoxylin and eosin staining and Oil red O staining. As a result of staining including the haematoxylin and eosin staining and Oil red O staining, it could be seen that in the liver obtained after oral administration with rebamipide, adipocyte were reduced as compared with a control induced with obesity (refer to FIG. 2).

Th17 cells = experiment: Th17 cell inhibition, flow cytometry of blood and spleen cells; assay type: cell-based, mouse; details: method: pre-treated at 1000 μM
Experimental: In order to stimulate CD4+ T cells 1×10 separated from the spleen under differentiation conditions of Th17 cells, the CD4+ T cells 1×10 were divided into a 24-well plate coated with 1 μg/Ml of an anti-CD3 antibody and treated with all of 1 μg/mL of an anti-CD28 antibody, 2 ng/ml of TGF-β, 20 ng/ml of IL-6, 10 ng/ml of anti-IL-4, and 10 ng/ml of anti-IFNr together suitable for stimulating Th17 cells. Then, the cells were stimulated for 1 hour. In this case, the cells were pre-treated with a rebamipide compound at a concentration of 1000 μM and cultured for 1 hour. The collected cells were allowed to react with a PerCP-anti-mouse CD4 antibody and a PE-anti-mouse phospho STATS antibody at 4° C. for 30 minutes in a dark field and washed with FACs buffer (0.002% sodium azide, 0.2% BSA/PBS). These cells were washed twice with Perm Wash buffer and re-floated on the FACs buffer and then analyzed with a flow cytometer.

[2] = test system: Th17 cells and Treg cells in spleen; experiment: Th17 and Treg cells in spleen sections, confocal microscope; assay type: in vivo, mouse; details: obese mice treated with rebamipide, FIG. 5A, 5B
Excerpt: (§1) In order to investigate whether or not rebamipide according to the present disclosure affected Th17 and Treg, the inventors of the present disclosure embedded a frozen section (optimal cutting temperature compound: O.C.T. compound) using the spleen of a mouse and rapidly cooled the tissue in liquid nitrogen and attached the tissue on a slide to a thickness of 7 μm using a cryo microtome. Then, the section was fixed with acetone and coated with 10% normal goat serum and blocked from a non-specific reaction for 30 minutes. Thereafter, the section was reacted at 4° C. overnight with primary antibodies, i.e. FITC-labeled anti-mFoxp3 Ab, PElabeled anti-mCD4 Ab, and APC-labeled anti-CD25 Ab, diluted with PBS (pH 7.5) at a ratio of 1:100 for Treg analysis and reacted with FITC-labeled anti-mCD4 Ab, and PE-labeled anti-mIL-17 for Th17 cell analysis. On the next day, the section was washed with a PBS solution, and a stained tissue was analyzed with a confocal microscope.

[3] = test system: animal models induced with obesity; experiment: Serum cholesterol, LDL-cholesterol and triglyceride, dose comparison; assay type: in vivo, mouse; details: FIG. 7A
Experimental: An experimental animal group was etherized and blood was collected from the heart. The collected blood was put into a centrifuge tube and centrifuged at 8000 rpm for 8 minutes at 20° C., so that the serum was separated.

adipocyte = experiment: Real time PCR of adipogenic and brown fat genes in differentiated adipocyte; assay type: cell-based; details: FIG. 9
Experimental: The inventors of the present disclosure differentiated adipocyte by the method of Example <7-1>. 3 days after differentiation, differentiation of adipocyte was maintained with replacement with a culture medium added with dexamethasone and insulin once per two days, and after 4 days, the cells were treated with trizol and RNA was separated therefrom and cDNA was synthesized. Then, by real time PCR, mRNA expression of c/EBP, adiponectin, Leptin aP2, GLTU, and Cytochrome C1 as proadipogenic transcription factors was observed.

[4] = test system: animal model with obesity induced arthritis; experiment: Arthritis index in obesity induced arthritis (collagen induced arthritis) model; assay type: in vivo, C57BL/6 mouse; details: 300 mg/kg oral, 10 times, three times per week, up to 61 days, FIG. 11
[5] = test system: Th17 cells and Treg cells in spleen; experiment: Th17 and Treg cells in spleen of obesity induced arthritis model, confocal microscope; assay type: in vivo, mouse; details: FIG. 15
Experimental: as §1, with “Further, in” for “In”, “affects” for “according to the present disclosure affected”, “that is,” for “i.e.”

[6] = well treated with 20 μm of rebamipide

O=C(NC(Cc1cc(=O)[nH]c2ccccc12)C(=O)O)c1ccc(Cl)cc1 (stereo not shown) [rebamipide, 2-(4-chlorobenzoylamino)-3-[2(1H)-quinolinon-4-yl]propionic acid]
adipocyte in liver [1]: remarkably reduced | Th17 cells in blood (Th17 cells; FIG. 4A): significantly reduced | Th17 cells in spleen (Th17 cells; FIG. 4B): significantly reduced | Treg cells in spleen [2]: increased | expression of Th17 in spleen [2]: reduced | LDL-cholesterol in serum ([3]; 30 mg/kg and 100 mg/kg oral): statistically significantly reduced | cholesterol in serum ([3]; 30 mg/kg and 100 mg/kg oral): statistically significantly reduced | triglyceride in serum ([3]; 30 mg/kg and 100 mg/kg oral): statistically significantly reduced | reduction effect on serum cholesterol, LDL-cholesterol and triglyceride ([3]; 100 mg/kg oral, compared between doses): generally highest | mRNA expression of Cytochrome C1 (adipocyte; differentiated adipocyte): reduced depending on a concentration of rebamipide | mRNA expression of GLTU (adipocyte; differentiated adipocyte): reduced depending on a concentration of rebamipide | mRNA expression of Leptin (adipocyte; differentiated adipocyte): reduced depending on a concentration of rebamipide | mRNA expression of aP2 (adipocyte; differentiated adipocyte): reduced depending on a concentration of rebamipide | mRNA expression of adiponectin (adipocyte; differentiated adipocyte): reduced depending on a concentration of rebamipide | mRNA expression of c/EBP (adipocyte; differentiated adipocyte): reduced depending on a concentration of rebamipide | level of brown fat gene Cidea (adipocyte; [6]): increased | level of brown fat gene Cox7a1 (adipocyte; [6]): increased | level of brown fat gene Elov13 (adipocyte; [6]): increased | level of brown fat gene Fgf21 (adipocyte; [6]): increased | arthritis index [4]: decreased | Treg cells in spleen [5]: increased | expression of Th17 in spleen [5]: reduced
